Test results from publication PMC12481569, “Novltex: A New Class of Antibiotics with Potent Activity against Multidrug-Resistant Bacterial Pathogens–Design, Synthesis, and Biological Evaluation” (Journal of Medicinal Chemistry, 2025).
Positions of bridges follow the written chain, without caps; N, C: chain ends. Non-standard residues stand in square brackets, D forms with d. Residues, ends and D or L forms follow the SMILES beside them. dCha = N[C@H](CC1CCCCC1)C(=O)O

What was measured:
HepG2 = experiment: Cytotoxicity, MTS-based assay; assay type: cell-based, human; conditions: up to 50 μg/mL, 24 or 48 h, three independent experiments in triplicate
Procedure: (§1) 4 Cytotoxicity evaluation of analogue 12. Human primary dermal fibroblasts (A), liver cell line HepG2 (B), and kidney cell line HEK293T (C) cells (5 × 10^3 cells/well in 96-well plates) were treated with increasing concentrations of analogue 12 or 1 μM staurosporine (STS, used as a positive toxicity control) for 24 or 48 h, as indicated. Viability of cells was determined using an MTS-based assay. Results (% cell viability) are the mean ± SD of three independent experiments performed in triplicate. (D) Freshly collected human red blood cells (RBCs) were exposed to increasing concentrations of 12 or Triton X-100 (TX), as indicated, for 1 h. Hemolytic activity (% hemolysis) was determined by spectrophotometrically measuring the release of hemoglobin compared to that with TX (used as a positive control). Results are the mean ± SD of 4 independent experiments performed in duplicate using blood samples from four different anonymous healthy donors. […]
(§2) Bacterial cultures were grown overnight on Mueller-Hinton Agar (MHA) plates and adjusted to a final inoculum of 10^5 – 10^6 CFU/mL. […] MIC values were determined in the media contain ing polysorbate 80 (0.002%, v/v) to prevent non -specific adsorption of the peptides to plastic surfaces. […] All the experiments were performed in two independent duplicates and the MIC was determined as the lowest concentration in which no visible growth was observed. […]

HEK293T = experiment: Cytotoxicity, MTS-based assay; assay type: cell-based, human; conditions: up to 50 μg/mL, 24 or 48 h, three independent experiments in triplicate
Procedure: as §1, §2

MRSA ATCC 33591 [1] = experiment: Resistance study on agar; assay type: cell-based, Staphylococcus aureus; conditions: 10× MIC on agar, 24 h, 37 °C
Procedure: (§3) MICs were performed as previously reported 4. For MIC testing all peptides were dissolved in DMSO.
Bacterial cultures were grown overnight on Mueller-Hinton Agar (MHA) plates and adjusted to a final inoculum of 10^5 – 10^6 CFU/mL. 100 µl of ino culum in Meuller -Hinton broth (MHB) was mixed with equal volume of peptides (dissolved in MHB) at 2x their concentration in a 96 well plate . […]
MIC values were determined in the media contain ing polysorbate 80 (0.002%, v/v) to prevent non -specific adsorption of the peptides to plastic surfaces. The final peptides concentrations ranged from 0.0625 – 32 µg/mL. The 96 well plates were then incubated at 37 °C for 24 h. All the experiments were performed in two independent duplicates and the MIC was determined as the lowest concentration in which no visible growth was observed. […]
VIII. Time dependent killing of bacteria and resistance studies by analogue 12 […]
Resistance evaluations were conducted following previously described protocols 5. […]

MRSA ATCC 33591 [2] = experiment: Time-kill kinetics; assay type: cell-based, Staphylococcus aureus; conditions: 2.5 μg/mL (10× MIC), MHB with 0.002% polysorbate 80, 37 °C, two independent experiments in duplicate
Procedure: Early-stage time-kill kinetics for analogue 12 against MRSA ATCC 33591 were performed using vancomycin as a control, following the protocol described in Section VIII, Supporting Information.
3 Time-kill kinetics of Novltex analogue 12 and clinical antibiotic (vancomycin) against MRSA 33591. […] Results are the mean ± SD of two independent experiments performed in duplicate.
as §3
Bacterial cultures were grown overnight on Mueller-Hinton Agar (MHA) plates and adjusted to a final inoculum of 10^5 – 10^6 CFU/mL. 100 µl of ino culum in Meuller -Hinton broth (MHB) was mixed with equal volume of peptides (dissolved in MHB) at 2x their concentration in a 96 well plate . For daptomycin MIC determination, the same protocol was followed with the addition of 50 mg/L calcium chloride to the medium. MIC values were determined in the media contain ing polysorbate 80 (0.002%, v/v) to prevent non -specific adsorption of the peptides to plastic surfaces. The final peptides concentrations ranged from 0.0625 – 32 µg/mL. The 96 well plates were then incubated at 37 °C for 24 h. All the experiments were performed in two independent duplicates and the MIC was determined as the lowest concentration in which no visible growth was observed.
Antibiotics MIC break points ( µg/mL)
Table. […]

Question: For `CC(C)C[C@@H]1NC(=O)[C@H](C)NC(=O)[C@H](NC(=O)[C@H](CO)NC(=O)[C@@H](CCCCN)NC(=O)[C@@H](CC2CCCCC2)NC(=O)[C@@H](N)Cc2ccccc2)[C@H](C)OC(=O)[C@H](CC(C)C)NC1=O` [analogue 12, Leu2Cha–Novltex] (H-F[dCha][dK]S[dT]ALL; ester 5-C), which “cytotoxicity (cell viability), HepG2” value (HepG2) is on record?
Answer: The value was “no major cytotoxicity”.

Question: What about the “cytotoxicity (cell viability), HEK293T” value (HEK293T) of the same compound?
Answer: The value was “no major cytotoxicity”.

Question: What about the “emergence of resistant mutants” value (MRSA ATCC 33591 [1]) of the same compound?
Answer: Its value is “No resistant MRSA ATCC 33591 mutants emerged”.

Question: What about the “time to significant bacterial killing” value (MRSA ATCC 33591 [2]) of the same compound?
Answer: The value was ≤ 6 h.
